Experimental data reported in patent US8637493B2, “Methods for treating glioblastoma” (University of Massachusetts, priority 2009, dated 2014).

Columns and labels:
Hes1 = test: RT-PCR / qRT-PCR of Notch target Hes1 mRNA in neurosphere cultures after DAPT; assay type: cell-based, human; conditions: for decrease of Hes1 mRNA level: 48 hours after treatment, RT-PCR; for Hes1 expression (qRT-PCR): 1 μM DAPT, 48 hours
Experimental: (§1) TMZ concentrations for each culture were selected based on previous experiments (Mihaliak et al., Cancer Letts. 296, 168-177 (2010)) DAPT and LY concentrations were chosen for each culture based on the decrease in Hes1 and Hey1 expression. RNA was isolated from the cultures 48 hours after DAPT treatment, and Hes1 and Hey1 cDNA expression levels were analyzed by PCR or qPCR.
(§2) RT-PCR and RT-qPCR were performed as follows. Neurosphere cultures were pelleted and tumor tissues from subcutaneous xenografts were broken into a powder using a BioPulverizer (Biospec Products, Inc., Bartlesville, Okla.). RNA was isolated from neurosphere cultures and frozen tumor samples using TRIzol Reagent (Invitrogen, Carlsbad, Calif.), following the manufacturer's protocol. RNA was treated with DNase I, Amplification Grade (Invitrogen, Carlsbad, Calif.). cDNA was made using the SuperScript II Reverse Transcription (RT) Kit with Oligo(dT)12-18 primers (Invitrogen, Carlsbad, Calif.), followed by a 20 minute incubation at 37° C. with RNaseH. PCR was carried out using Taq DNA Polymerase, following the manufacturer's protocol (Invitrogen, Carlsbad, Calif.). Real time qPCR was carried out using QuantiTect SYBR Green (QIAGEN, Valencia, Calif.). Hes1 and β-Actin primers were developed using Primer3 (Rozen and Skaletsky, Methods Mol Biol 2000; 132: 365-86). Hes1 forward primer: 5″ […] 3″ (SEQ ID NO:1) and reverse primer: 5″ […] 3″ (SEQ ID NO:2). β-Actin (RT-PCR) forward primer: 5″[…] 3″ (SEQ ID NO:3) and reverse primer: 5″ […] 3″ (SEQ ID NO:4). β-Actin (qRT-PCR) forward primer: 5″[…] 3″ (SEQ ID NO:5) and reverse primer: 5″ […] (SEQ ID NO:6). Primers for Hey1 (Osipo et al., Oncogene 2008; 27: 5019-32), Notch1 (Lefort et al., Genes Dev 2007; 21: 562-77), Notch2 (O'Neill et al., Am J Pathol 2007; 171: 1023-36), Notch3 (Buchler et al., Ann Surg 2005; 242: 791-800, discussion −1) and Notch4 (Buchler et al., Ann Surg 2005; 242: 791-800, discussion −1) were previously published, RT-PCR products were analyzed on 2% agarose gels. tantification of band intensity for DAPT treated lines was determined using ImageJ (Rasband W S. ImageJ, U.S. National Institutes of Health, Bethesda, Md., USA. 1997-2004). cDNA levels for qRT-PCR products were calculated using the PFAFFL method (Pfaffl, Nucleic Acids Res 2001; 29: e45).

Hey1 = test: RT-PCR / qRT-PCR of Notch target Hey1 mRNA in neurosphere cultures after DAPT; assay type: cell-based, human; conditions: for decrease of Hey1 mRNA level: 48 hours after treatment, RT-PCR; for Hey1 expression (qRT-PCR): 1 μM DAPT, 48 hours
Experimental: as §1, §2

[1] = in vivo; cited from earlier work
GS7-2-NICD = test: Neurosphere recovery assay, GS7-2-NICD; assay type: cell-based, human; conditions: constitutive NICD
Experimental: (§3) Neurosphere cultures were dissociated to single cell suspensions by pH dissociation followed by filtration through 40 μm screens. For the neurosphere assay, 3,000 cells/ml of defined medium were seeded in 6-well plates. Immediately after plating, cells were treated with DMSO (Research Organics, Cleveland, Ohio) carrier control, TMZ-only, DAPT-only, or TMZ+DAPT. Additional DAPT was added on days 2 and 4. Neurospheres consisting of 10 or more cells were counted under a light microscope on day 7 for the converted cell lines. Primary lines have a slightly longer doubling time and were counted on day 10. After counting the neurospheres from the initial treatment, 2 ml of fresh defined medium was added to each well. DAPT was also added once more to the DAPT-only and TMZ+DAPT samples, and the cells were incubated for an additional 7 or 10 days. Neurospheres from the recovery period were counted on day 14 or day 20. To analyze secondary neurosphere formation, cells were collected, pelleted and dissociated to a single cell suspension by the pH method. Cells from each well were re-seeded into 6-well plates with 2 ml of defined medium. The number of secondary neurospheres formed by converted cell lines and primary cultures were counted on day 21 or day 30, respectively. All recovery assays were repeated with a minimum of 6 replicate sets of time points. […]

[2] = Toxicity by body weight during drug administration
Experimental: Tolerance of the drug treatments was determined by measuring the weight of the mice during the period of drug administration.
During drug administration, toxicity was determined by weight loss.

U87NS-NICD = test: Neurosphere recovery assay, U87NS-NICD (constitutive Notch1 intracellular domain); assay type: cell-based, human
Experimental: as §3

Compound	decrease of Hes1 mRNA level (Hes1; U87NS, DAPT 1 μM) [%]	Hes1 expression (qRT-PCR) (Hes1; U87NS-NICD)	Hes1 expression (qRT-PCR) (Hes1; U87NS-pMIG)	decrease of Hes1 mRNA level (Hes1; U373NS, DAPT 5 μM) [%]	decrease of Hey1 mRNA level (Hey1; U87NS, DAPT 1 μM) [%]	Hey1 expression (qRT-PCR) (Hey1; U87NS-NICD)	Hey1 expression (qRT-PCR) (Hey1; U87NS-pMIG)	decrease of Hey1 mRNA level (Hey1; U373NS, DAPT 5 μM) [%]	concentration of TMZ in the cerebral spinal fluid [1]	recovery: increase in neurospheres (GS7-2-NICD) [fold]	body weight, initially after TMZ injections [2]	body weight, remainder of treatment / final weight [2]	recovery: increase in neurospheres (U87NS-NICD) [fold]
C[C@H](NC(=O)Cc1cc(F)cc(F)c1)C(=O)N[C@H](C(=O)OC(C)(C)C)c1ccccc1 [DAPT, N-[N-(3,5-difluorophenacetyl)-L-alanyl]-(S)-phenylglycine t-butyl ester]	72	minimal decrease	decreased	76	76	minimal decrease	decreased	51					
Cn1nnc2c(C(N)=O)ncn2c1=O [TMZ, temozolomide]									about 5 μM	2.6	slight weight loss	no significant weight difference	2.3
